Results as given in patent publication EP4653431A1, “PYRAZOLE DERIVATIVE, AND PHARMACEUTICALLY ACCEPTABLE SALT, STEREOISOMER, PHARMACEUTICAL COMPOSITION AND USE THEREOF” (Starg (Wuhan) Pharmaceutical Technology Co., Ltd, priority 2023, dated 2024).
Structures can show the parent of a compound that is named as a salt. Where two headings read alike, the source gives them in different places.

Assays:
[1] = target: T1, CDK1/cyclin B1 (Homo sapiens, UniProt P06493); test: In vitro CDK1/cyclin B1 enzyme activity assay (TR-FRET); format: biochemical
T1 construct: purchased Carna Biosciences
T1 sequence (P06493 whole entry): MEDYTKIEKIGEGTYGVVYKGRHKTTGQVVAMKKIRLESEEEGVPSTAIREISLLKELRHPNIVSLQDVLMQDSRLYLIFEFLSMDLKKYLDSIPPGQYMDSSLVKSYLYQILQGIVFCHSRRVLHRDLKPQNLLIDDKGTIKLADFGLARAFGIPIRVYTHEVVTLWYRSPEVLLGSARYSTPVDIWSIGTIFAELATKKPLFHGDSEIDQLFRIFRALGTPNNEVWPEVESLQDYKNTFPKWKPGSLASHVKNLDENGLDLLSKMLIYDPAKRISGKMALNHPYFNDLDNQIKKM
T1 sequence (P14635 whole entry partner): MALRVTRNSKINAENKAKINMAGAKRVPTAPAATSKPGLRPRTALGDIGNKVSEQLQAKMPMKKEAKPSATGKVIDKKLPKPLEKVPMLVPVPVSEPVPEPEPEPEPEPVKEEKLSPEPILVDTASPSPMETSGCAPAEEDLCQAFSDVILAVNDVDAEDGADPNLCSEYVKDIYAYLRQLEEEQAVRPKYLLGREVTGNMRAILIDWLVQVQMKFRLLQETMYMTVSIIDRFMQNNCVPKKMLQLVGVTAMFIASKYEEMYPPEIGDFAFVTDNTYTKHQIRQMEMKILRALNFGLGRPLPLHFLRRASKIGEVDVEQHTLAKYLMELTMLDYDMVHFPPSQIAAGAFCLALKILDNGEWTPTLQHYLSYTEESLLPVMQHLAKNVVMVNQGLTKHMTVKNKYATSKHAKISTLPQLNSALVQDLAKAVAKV
Protocol: CDK1/cyclin B1 was purchased from Carna Biosciences. Ulight-4E-BP1 peptide, Eu-anti-phospho-tyrosine antibody, and 1X detection buffer were purchased from PerkinElmer. High-purity ATP was purchased from Promega. EDTA was purchased from Sigma. Nivo multimode plate reader (PerkinElmer) was used.
Preparation of Kinase Buffer Solution: The kinase buffer solution consisted 50 mM HEPES, 1 mM EDTA, 10 mM MgCl2, and 0.01% Brij-35, with pH of 7.4.
The stop solution was prepared by mixing 100 µL of 1 M EDTA stock solution with […] of 1X detection buffer solution and 1725 µL of distilled water.
The enzyme, Ulight-4E-BP1 peptide, ATP, and the inhibitor were diluted using the kinase buffer solution.
The Eu-anti-phospho-tyrosine antibody was diluted to a concentration of 8 nM/L using the detection buffer solution.
The final concentration of DMSO was 4%, and the experiment was set up with duplicate wells. […] The reaction system was incubated at 25 °C for 60 minutes. After the reaction, 5 µL of the stop solution was added to each well, and further reacted at 25 °C for 5 minutes to terminate the reaction. Then 5 µL of Eu-anti-phospho-tyrosine antibody dilution was added to each well, and the mixture was incubated at 25 °C for 60 minutes.
The IC50 value was obtained by fitting the data to a four-parameter curve (using log(inhibitor) vs. response -- Variable slope model in GraphPad Prism).

[2] = system: OVCAR-3 cells; test: In vitro OVCAR-3 cell viability assay (CellTiter-Glo); format: cell-based; settings: Homo sapiens, OVCAR-3, 168 h, 7 days incubation
Protocol: (§1) 1640 medium, fetal bovine serum, and penicillin/streptomycin antibiotics were purchased from Wisent. CellTiter-Glo (cell viability chemiluminescence assay reagent) was purchased from Promega. The OVCAR-3 cell line was purchased from Nanjing Cobioer Biosciences Co., Ltd. Envision multimode plate reader (PerkinElmer) was used.
OVCAR-3 cells were seeded into a white 384-well plate, with 40 µL of cell suspension containing 300 OVCAR-3 cells per well. The cell plate was incubated overnight in a CO2 incubator.
(§2) The test compound was serially diluted 5-fold using a multichannel pipette to the 8th concentration, i.e., from 2000 µM to 0.00512 µM. The experiment was set up with duplicate wells. 78 µL of culture medium was added to an intermediate plate, and 2 µL per well of the gradient-diluted compound was transferred to the corresponding position in the intermediate plate. After mixing, 10 µL per well of the mixture was transferred to the cell plate. The concentration range of the compound transferred to the cell plate was from 10 µM to 0.026 nM. The cell plate was incubated in a CO2 incubator for 7 days. Another cell plate was prepared, and the signal value was read on the day of compound addition to serve as the maximum value (Max in the equation below) for data analysis. 10 µL per well of CellTiter-Glo reagent was added to the cell plate, and the cell plate was incubated at room temperature for 10 minutes to stabilize the luminescence signal. The signal was read using the multimode plate reader.
10 µL per well of CellTiter-Glo reagent was added to the cell plate, and the cell plate was incubated at room temperature for 10 minutes to stabilize the luminescence signal. The signal was read using the multimode plate reader.
(§3) The raw data were converted to inhibition rates using the equation (Sample-Min)/(Max-Min)×100%. The IC50 value was obtained by fitting the data to a four-parameter curve (using log(inhibitor) vs. response -- Variable slope model in GraphPad Prism). Table 1 provides the inhibitory activity of the compounds of the present application against OVCAR-3 cell proliferation.

[3] = system: T-47D cells; test: In vitro T-47D cell viability assay (CellTiter-Glo); format: cell-based; settings: Homo sapiens, T47D, 168 h, 7 days incubation
Protocol: as §1, with “T-47D” for “OVCAR-3”
T-47D cells were seeded into a white 384-well plate, with 40 µL of cell suspension containing 300 T-47D cells per well. The cell plate was incubated overnight in a CO2 incubator.
as §2, with “using the Envision multimode plate” for “using the multimode plate”
10 µL per well of CellTiter-Glo reagent was added to the cell plate, and the cell plate was incubated at room temperature for 10 minutes to stabilize the luminescence signal. The signal was read using the Envision multimode plate reader.
as §3, with “T-47D” for “OVCAR-3”

[4] = CDK1/cyclin B1, 1 mM ATP, 60 min at 25 °C, Table 1, read-out: CDK1 IC50
[5] = exact values stated in the text below Table 1, read-out: IC50 against CDK1

Row | IC50 [1, 4] | IC50 [1, 5] | IC50 [2] | IC50 [3] | Compound
1 | > 1000 nM | 4080 nM | 124 nM | 465 nM | CON(C)Cc1nn2ccnc(Nc3cc([C@H]4CC[C@@H](OC(=O)NC(C)C)C4)[nH]n3)c2c1C [Formate salt of compound 2]
2 | > 1000 nM | 1500 nM | 309 nM | 193 nM | CONCc1nn2ccnc(Nc3cc([C@H]4CC[C@@H](OC(=O)NC(C)C)C4)[nH]n3)c2c1F [Compound 5]
3 | > 1000 nM | 3490 nM | 104 nM | 384 nM | CON(C)Cc1nn2ccnc(Nc3cc([C@H]4CC[C@@H](OC(=O)NC(C)C)C4)[nH]n3)c2c1F [Compound 6]
